Source: patent US20150038694A1, “GLUCOSE D[…] TO ARSENIC FOR USE IN THE TREATMENT OF TUMOUR” (XENUS SRL, priority 2012, published 2015)
“Also recorded” adds a separate entry of the source.

What was measured:
[1] = tested on: cellular line of human neuroblastoma (SK-N-BE); assay: MTT test (reduction of tetrazolium salts) on human neuroblastoma cells; format: cell-based; settings: for reduction of the cell survival (formazan absorbance data): final concentrations 10-30-50-100 and 200 μM, forty-eight, seventy-two and ninety-six hours, absorbance at 570 nm; for morphologic changes visible with an optical microscope (loss of adherence to the plate, roundish shape with irregular outlines): treated cells
Description: (§1) The compound GD152.186 (PM 449,4) produced by means of above mentioned synthesis process, has been tested in a series of preclinical testing on cellular lines of human tumors, and in particular on a cellular line of human neuroblastoma (SK-N-BE) and on a cellular line of human promyelokytic leukemia (HL60).
The culture medium used for growing the SK-N-BE cells is DMEM High Glucose (Dulbecco's Modified Eagle Medium) with 10% FBS (fetal bovine serum), 1% L-Glutamine and 1% Penicillin/Streptomycin antibiotics.
(§2) As a positive control, arsenic trioxide (As2O3, Sigma-Aldrich) has been used, as its activity has already been tested on cellular lines of human neuroblastoma and human promyelokytic leukemia.
(§3) The compound GD152.186 has been dissolved in sterile water so as to reach the final concentrations of 100-300-500-1000-2000 μM.
(§4) The test used for evaluating the persistence of tumor cells after the contact with said compound GD152.186 is the MTT test (reduction of tetrazolium salts).
(§5) Said test is based on the ability of the mitochondrial respiratory enzyme of the cells, usually called succinate tetrazolium reductase, of reducing a tetrazolium salt (3-[4,5-dimethylthiazol-2-yl]-2,5-diphenyltetrazolium bromide (MTT, Sigma Aldrich)) into an insoluble compound of blue colour, usually called formazan.
Said reduction process occurs only in living cells and not in dead or damaged ones, consequently, the amount of formazan produced is directly proportional to the number of cells metabolically active in the tested sample.
96-well plates have been used for performing the tests, wherein in each well 5.000 (SK-N-BE) cells or 50.000 (HL60) cells have been sown, suspended in 180 μL of medium and then incubated at 37° C. and 5% CO2.
Forty-eight hours later, the cells have been treated with 20 μL of growing concentrations (in six replicates) of arsenic trioxide (100-300-500-1000 μM) and of GD152.186 compound (100-300-500-1000-2000 μM), so as to obtain inside each single well the final concentrations of 10-30-50-100 and 200 μM.
To one six-well column no compound is added but only 20 μL of sterile water, for following the natural growth of the cells.
The plates are incubated again for forty-eight, seventy-two and ninety-six hours, at the end thereof the test is performed.
To each single well 20 μL of MTT solution (5 mg·m-1 in sterile […]) have been added, giving an incubation time of three hours, functional to the formation of formazan.
Then, the supernatant is removed from each well and 200 μL of DMSO are added.
After about ten minutes the concentration level of formazan has been taken by means of a spectrophotometer set at a wave length of 570 nm.

[2] = tested on: cellular line of human promyelokytic leukemia (HL60); assay: MTT test (reduction of tetrazolium salts) on human promyelokytic leukemia cells; format: cell-based; settings: increasing concentrations
Protocol: as §1
Instead, the HL60 cells grow in suspension at a temperature of 37° C. and in 5% CO2, and the culture medium used is RPMI 1640 with 10% FBS (fetal bovine serum), 1% L-Glutamine and 1% Penicillin/Streptomycin antibiotics.
as §2, §3, §4
as §5, with “formazan. […]” for “formazan.”

| Compound | reduction of the cell survival (formazan absorbance data) [1] | morphologic changes visible with an optical microscope (loss of adherence to the plate, roundish shape with irregular outlines) [1] | reduction of the cell survival (formazan absorbance data), HL60 cells [2] |
| --- | --- | --- | --- |
| OC[C@H]1O[C@H](CCNc2ccc([As]3SCCS3)cc2)[C@H](O)[C@@H](O)[C@@H]1O [GD152.186] | reduction of the cell survival is directly depending on the dosage of the GD152.186 compound and on the time of exposure; also recorded: most visible when the cells have come into contact with high concentrations (100-200 μM) | morphologic changes have been surprisingly detected | reduction of the cell survival |
| arsenic trioxide [reference compound] | reduction of the cell survival is strictly dependent on the arsenic trioxide dosage and on the time of exposure | morphologic changes have been found | reduction of the cell survival |
